Measurements from patent publication US5364877A, “Indole derivatives as 5-lipoxygenase inhibitors” (ICI Pharma, priority 1990, dated 1994).

Target: T1, 5-LO (Rattus norvegicus, UniProt P12527)
T1 construct: liberation of LTB4 induced by zymosan within an air pouch generated within the subcutaneous tissue of the back of male rats; endogenous in cells; host or cells: cells in the air pouch of living male rats (in vivo)
T1 sequence (P12527 1-673): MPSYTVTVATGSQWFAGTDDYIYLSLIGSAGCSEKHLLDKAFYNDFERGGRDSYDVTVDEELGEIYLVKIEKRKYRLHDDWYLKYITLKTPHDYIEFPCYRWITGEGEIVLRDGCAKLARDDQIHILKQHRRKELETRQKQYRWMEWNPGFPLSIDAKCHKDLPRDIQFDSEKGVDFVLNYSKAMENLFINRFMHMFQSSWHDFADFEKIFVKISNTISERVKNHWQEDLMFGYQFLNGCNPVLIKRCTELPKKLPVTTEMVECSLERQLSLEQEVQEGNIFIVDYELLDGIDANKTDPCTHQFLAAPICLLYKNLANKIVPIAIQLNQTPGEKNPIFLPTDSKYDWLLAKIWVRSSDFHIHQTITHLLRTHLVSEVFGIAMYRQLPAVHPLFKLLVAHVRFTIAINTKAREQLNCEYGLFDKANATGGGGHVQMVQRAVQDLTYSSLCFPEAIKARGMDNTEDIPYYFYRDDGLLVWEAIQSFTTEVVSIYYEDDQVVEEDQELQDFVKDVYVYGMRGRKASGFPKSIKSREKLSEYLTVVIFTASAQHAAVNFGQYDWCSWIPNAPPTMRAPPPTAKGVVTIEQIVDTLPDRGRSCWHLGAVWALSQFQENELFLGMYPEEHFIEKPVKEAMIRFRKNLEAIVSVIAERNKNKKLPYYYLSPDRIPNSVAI
Assay: Test g) zymosan-induced liberation of LTB4 within an air pouch in male rats
Assay type: in vivo
Conditions: rat, 3 h; test g), oral
Method: g) An in vivo system involving measuring the effects of a test compound administered orally against the liberation of LTB4 induced by zymosan within an air pouch generated within the subcutaneous tissue of the back of male rats. The rats are anaesthetised and air pouches are formed by the injection of sterile air (20 ml). A further injection of air (10 ml) is similarly given after 3 days. At 6 days after the initial air injection the test compound is administered (usually orally as the suspension produced when a solution of the test compound in dimethylsulphoxide is added to hydroxypropylmethylcellulose), followed by the intrapouch injection of zymosan (1 ml of a 1% suspension in physiological saline). After 3 hours the rats are killed, the air pouches are lavaged with physiological saline, and the specific radioimmunoassay described above is used to assay LTB4 in the washings. This test provides an indication of inhibitory effects against 5-LO in an inflammatory milieu.

`COC1(c2cccc(Sc3ccc4c(c3)n(C)c(=O)n4C)c2)CCOCC1` [Example 1, 4-[3-(1,3-dimethyl-2-oxo-2,3-dihydrobenzimidazol-5-ylthio)phenyl]-4-methoxytetrahydropyran] was tested, and the ED50 was < 2 mg/kg.
